Source: patent US4479941A, “Renin inhibitory peptides having PHE^13 delection” (Merck & Co., Inc., priority 1982, dated 1984)
Square brackets hold non-standard residues; d marks the D form. Peptide text beside a SMILES is read from it. * marks the point of attachment. Sta = CC(C)C[C@H](N)[C@@H](O)CC(=O)O; X2 = c1ccc(CC(N*)c2ccccc2)cc1; NH(CH2)3Ph = c1ccc(CCCN*)cc1; NHPhenethyl = c1ccc(CCN*)cc1; X5 = c1ccc(CN2CCC(N*)CC2)cc1; Isobutyryl = CC(C)C(=O)*; Boc = CC(C)(C)OC(=O)*; NHBn = c1ccc(CN*)cc1; X3 = OCCN(CCO)CCCN*

Columns and labels:
hog kidney renin = hog kidney renin (Sus scrofa, UniProt A0A287APG1); experiment: Hog renin inhibition; type: biochemical; settings: pH 7.3, read-out: I50 (concentration of peptide inhibitor necessary to produce 50% inhibition of renin activity)
Procedure: An assay was carried out in order to determine the inhibitory potency of the peptides of the present invention.

human kidney renin = target: T1, human kidney renin (Homo sapiens, UniProt P00797); experiment: Human renin inhibition; type: biochemical; settings: purified human kidney renin; read-out: KI (dissociation constant of the inhibited enzyme-inhibitor complex)
T1 construct: human kidney renin purified as described in Bangham; from tissue; host or cells: human kidney
T1 sequence (P00797 67-406): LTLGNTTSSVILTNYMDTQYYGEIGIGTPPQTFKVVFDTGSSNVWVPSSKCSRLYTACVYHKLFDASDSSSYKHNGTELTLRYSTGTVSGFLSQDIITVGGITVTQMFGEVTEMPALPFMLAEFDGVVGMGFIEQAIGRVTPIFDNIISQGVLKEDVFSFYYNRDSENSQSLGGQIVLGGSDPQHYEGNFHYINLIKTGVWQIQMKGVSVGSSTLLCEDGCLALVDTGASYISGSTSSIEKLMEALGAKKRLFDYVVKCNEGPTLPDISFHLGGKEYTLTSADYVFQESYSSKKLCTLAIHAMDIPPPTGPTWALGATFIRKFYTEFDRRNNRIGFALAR
Procedure: An assay was carried out in order to determine the inhibitory potency of the peptides of the present invention. The assay measured the inhibition of human kidney renin purified as described in Bangham, D. R., Robertson, I., Robinson, J. I. S., Robinson, C. J., and Tree, M., Clinical Science and Molecular Medicine, 48 (Supp. 2): 136s-159s (1975), and further purified by affinity chromatography on pepstatin-aminohexyl-Sepharase as described in Poe, M., Wu., J. K., Florance, J. R., Radkey, J. A., Bennett, C. D., and Hoagsteen, K., J. Biol. Chem. (1982, in press). The assay was also in accordance with Poe et al. cited above. Results are expressed as KI values, which refer to the dissociation constant of the inhibited enzyme-inhibitor complex. This KI value was obtained as described above.

[1] = system: aspartyl proteases such as pepsin, cathepsin D, and renin; settings: other acid proteases; cited from earlier work
hog renin = settings: after injection of hog renin into nephrectomized rats (Gross et al. 1971); cited from earlier work

Sequence of hog kidney renin (A0A287APG1 67-407): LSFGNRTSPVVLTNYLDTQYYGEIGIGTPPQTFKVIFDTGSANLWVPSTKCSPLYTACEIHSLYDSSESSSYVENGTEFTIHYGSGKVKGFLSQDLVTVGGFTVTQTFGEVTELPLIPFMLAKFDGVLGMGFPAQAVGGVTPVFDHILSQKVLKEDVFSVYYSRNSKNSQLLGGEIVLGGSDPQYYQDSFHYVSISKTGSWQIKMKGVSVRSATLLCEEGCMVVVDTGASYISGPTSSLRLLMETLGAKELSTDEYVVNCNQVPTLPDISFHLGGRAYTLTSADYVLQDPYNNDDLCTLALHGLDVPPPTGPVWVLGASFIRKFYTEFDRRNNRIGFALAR

Row | Molecule | IC50 (hog kidney renin) [nM] | also measured
1 | CC(C)C[C@H](NC(=O)C[C@H](O)[C@H](CC(C)C)NC(=O)[C@H](Cc1c[nH]cn1)NC(=O)[C@H](Cc1ccccc1)NC(=O)OC(C)(C)C)C(=O)NC(C)c1cccc2ccccc12 (single isomer, unassigned) [BOC--Phe-His-Sta-Leu-(+)-α-naphthylethylamide] | 11 | 
2 | CC(=O)N[C@@H](Cc1ccccc1)C(=O)N[C@@H](Cc1c[nH]cn1)C(=O)N[C@@H](Cc1ccccc1)[C@@H](O)CC(=O)N[C@@H](CC(C)C)C(=O)NCc1ccccc1 [Acetyl--Phe-His-AHPPA-Leu-benzylamide] | 3.4 | 
3 | CC(C)C[C@H](NC(=O)C[C@H](O)[C@H](Cc1ccccc1)NC(=O)[C@H](Cc1c[nH]cn1)NC(=O)[C@H](Cc1ccccc1)NC(=O)OC(C)(C)C)C(=O)NCc1ccccc1 [BOC--Phe--His--AHPPA--Leu--benzylamide, BOC--Phe-His-AHPPA^4 -Lleu-benzylamide] | 1.4 | 
4 | CC(C)C[C@H](NC(=O)C[C@H](O)[C@H](CC(C)C)NC(=O)[C@H](Cc1c[nH]cn1)NC(=O)[C@H](Cc1ccccc1)NC(=O)OC(C)(C)C)C(=O)N[C@@H](CC(C)C)[C@@H](O)CC(=O)O [BOC--Phe--His--Sta--Leu--Sta, BOC--Phe-His-Sta-Leu-Sta] (Boc-FH[Sta]L[Sta]-OH) | 36 | 
5 | CC(C)C[C@H](NC(=O)C[C@H](O)[C@H](CC(C)C)NC(=O)[C@H](Cc1c[nH]cn1)NC(=O)[C@H](Cc1ccccc1)NC(=O)OC(C)(C)C)C(=O)NCc1ccccc1 [BOC--Phe--His--Sta--Leu--benzylamide, BOC--Phe-His-Sta-Leu-benzylamide] (Boc-FH[Sta]L-NHBn) | 11 | 
6 | CC(C)C[C@H](NC(=O)C[C@H](O)[C@H](CC(C)C)NC(=O)[C@H](Cc1c[nH]cn1)NC(=O)[C@H](Cc1ccccc1)NC(=O)OC(C)(C)C)C(=O)NC1CCN(Cc2ccccc2)CC1 [BOC--Phe-His-Sta-Leu-(4-amido-1-benzylpiperidine)] (Boc-FH[Sta]L-X5) |  | Ki (human kidney renin): 0.06 nM
7 | CC(C)C[C@H](NC(=O)C[C@H](O)[C@H](CC(C)C)NC(=O)[C@H](Cc1c[nH]cn1)NC(=O)[C@H](Cc1ccccc1)NC(=O)OC(C)(C)C)C(=O)NCCCN(CCO)CCO [BOC--Phe-His-Sta-Leu-[N-(3-amidopropyl)diethanolamine]] (Boc-FH[Sta]L-X3) |  | Ki (human kidney renin): 52 nM
8 | CC(C)C[C@H](NC(=O)C[C@H](O)[C@H](CC(C)C)NC(=O)[C@H](Cc1c[nH]cn1)NC(=O)[C@H](Cc1ccccc1)NC(=O)[C@@H]1CCCN1C(=O)[C@H](Cc1c[nH]cn1)NC(=O)C(C)C)C(=O)NC(Cc1ccccc1)c1ccccc1 (stereo partly drawn) [IBU--His-Pro-Phe-His-Sta-Leu-1,2-diphenylethylamide] (Isobutyryl-HPFH[Sta]L-X2) | 5.6 | 
9 | CC(C)C[C@H](NC(=O)C[C@H](O)[C@H](CC(C)C)NC(=O)[C@H](Cc1c[nH]cn1)NC(=O)[C@H](Cc1ccccc1)NC(=O)[C@@H]1CCCN1C(=O)[C@H](Cc1c[nH]cn1)NC(=O)C(C)C)C(=O)NCCc1ccccc1 [IBU--His-Pro-Phe-His-Sta-Leu-2-phenylethylamide] (Isobutyryl-HPFH[Sta]L-NHPhenethyl) | 30 | 
10 | CC(C)C[C@H](NC(=O)C[C@H](O)[C@H](CC(C)C)NC(=O)[C@H](Cc1c[nH]cn1)NC(=O)[C@H](Cc1ccccc1)NC(=O)[C@@H]1CCCN1C(=O)[C@H](Cc1c[nH]cn1)NC(=O)C(C)C)C(=O)NCCCc1ccccc1 [IBU--His-Pro-Phe-His-Sta-Leu-3-phenylpropylamide] (Isobutyryl-HPFH[Sta]L-{NH(CH2)3Ph}) | 19 | 
11 | CC(C)C[C@H](NC(=O)C[C@H](O)[C@H](CC(C)C)NC(=O)[C@H](Cc1c[nH]cn1)NC(=O)[C@H](Cc1ccccc1)NC(=O)[C@@H]1CCCN1C(=O)[C@H](Cc1c[nH]cn1)NC(=O)C(C)C)C(=O)NCc1ccccc1 [N-Isobutyryl-L-histidyl-L-prolyl-L-phenylalanyl-L-histidyl-(3S,4S)-statyl-L-leucyl-benzylamide] (Isobutyryl-HPFH[Sta]L-NHBn) | 13 | Ki (human kidney renin): 12 nM
12 | pepstatin |  | inhibition of aspartyl proteases (selectivity) [1]: inhibition of a variety of other acid proteases in addition to renin; reduction of blood pressure in vivo (hog renin): reduce blood pressure in vivo
